Measurements from publication PMC10794144, “A novel antibiotic class targeting the lipopolysaccharide transporter” (Nature, 2024).
Read-outs that look alike come from different tables or passages of the source.

Assays:
Experiment in all cases: Off-target screening (CEREP)
Type in all cases: binding
Conditions in all cases: read-out: percent inhibition
[1] = biological target: T1, 5-HT transporter (Homo sapiens, UniProt P31645)
T1 construct: purchased Eurofins CEREP SA
Experimental: (§1) Supplementary Table 1 │ Off-target activity screening f or MCP compou nds […]
(§2) The assays given in the table above were conducted at Eurofins CEREP S A (Celle-Lévescault, France) and were run as single point measurements in duplicates in the presence of 10 µ M of the test compound and reported as percent inhibition of the radioligand signal or control enzymatic activity. n.d., not

[2] = biological target: T2, Alpha1A-adrenoreceptor (Homo sapiens, UniProt P35348)
T2 construct: purchased Eurofins CEREP SA
T2 sequence (P35348 1-466): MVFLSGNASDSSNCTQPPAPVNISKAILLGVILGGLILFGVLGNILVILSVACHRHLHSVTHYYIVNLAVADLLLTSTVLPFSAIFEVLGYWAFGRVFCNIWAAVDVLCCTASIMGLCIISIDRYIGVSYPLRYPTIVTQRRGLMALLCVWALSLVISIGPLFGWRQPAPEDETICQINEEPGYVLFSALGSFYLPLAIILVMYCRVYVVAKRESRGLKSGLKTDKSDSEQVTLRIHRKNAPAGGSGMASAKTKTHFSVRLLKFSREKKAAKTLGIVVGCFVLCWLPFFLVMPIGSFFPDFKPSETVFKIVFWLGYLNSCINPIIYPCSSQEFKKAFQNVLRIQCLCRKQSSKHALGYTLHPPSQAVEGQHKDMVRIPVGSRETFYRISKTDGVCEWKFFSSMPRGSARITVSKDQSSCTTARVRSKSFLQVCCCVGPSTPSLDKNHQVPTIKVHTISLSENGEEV
Experimental: as §1, §2

[3] = biological target: T3, Kappa opioid receptor (Homo sapiens, UniProt P41145)
T3 construct: purchased Eurofins CEREP SA
Experimental: as §1, §2

[4] = biological target: T4, Adenosine A1 respetor (Homo sapiens, UniProt P30542)
T4 construct: purchased Eurofins CEREP SA
T4 sequence (P30542 1-326): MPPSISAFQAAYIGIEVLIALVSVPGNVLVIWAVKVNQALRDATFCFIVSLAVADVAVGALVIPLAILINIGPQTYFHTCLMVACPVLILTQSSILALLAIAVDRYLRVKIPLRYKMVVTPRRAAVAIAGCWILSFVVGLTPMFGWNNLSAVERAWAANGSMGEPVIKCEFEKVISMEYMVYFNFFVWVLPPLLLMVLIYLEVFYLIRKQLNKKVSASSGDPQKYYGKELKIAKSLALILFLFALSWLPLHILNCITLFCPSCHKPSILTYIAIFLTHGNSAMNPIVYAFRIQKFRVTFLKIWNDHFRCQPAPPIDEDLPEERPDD
Experimental: as §1, §2

[5] = biological target: T5, Mu opioid receptor (Homo sapiens, UniProt P35372)
T5 construct: purchased Eurofins CEREP SA
Experimental: as §1, §2

[6] = biological target: T6, Alpha2A-adrenoreceptor (Homo sapiens, UniProt P08913)
T6 construct: purchased Eurofins CEREP SA
T6 sequence (P08913 1-465): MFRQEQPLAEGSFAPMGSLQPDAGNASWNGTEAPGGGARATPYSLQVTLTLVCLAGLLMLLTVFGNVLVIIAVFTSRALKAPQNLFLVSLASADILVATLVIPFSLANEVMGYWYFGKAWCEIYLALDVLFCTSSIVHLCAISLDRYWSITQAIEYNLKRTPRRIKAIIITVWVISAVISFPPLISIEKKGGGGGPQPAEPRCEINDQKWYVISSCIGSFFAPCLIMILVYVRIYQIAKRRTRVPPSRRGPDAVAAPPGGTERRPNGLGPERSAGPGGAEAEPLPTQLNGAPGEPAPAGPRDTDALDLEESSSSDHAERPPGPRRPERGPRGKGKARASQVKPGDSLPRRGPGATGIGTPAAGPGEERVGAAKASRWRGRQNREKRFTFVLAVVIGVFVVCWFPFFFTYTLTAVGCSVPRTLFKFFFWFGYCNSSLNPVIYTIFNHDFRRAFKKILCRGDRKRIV
Experimental: as §1, §2

[7] = biological target: T7, Histamine H1 receptor (Homo sapiens, UniProt P35367)
T7 construct: purchased Eurofins CEREP SA
Experimental: as §1, §2

[8] = biological target: T8, Cannabinoid receptor CB1 (Homo sapiens, UniProt P21554)
T8 construct: purchased Eurofins CEREP SA
Experimental: as §1, §2

[9] = biological target: T9, Histamine H2 receptor (Homo sapiens, UniProt P25021)
T9 construct: purchased Eurofins CEREP SA
Experimental: as §1, §2

[10] = biological target: T10, Dopamine D1 receptor (Homo sapiens, UniProt P21728)
T10 construct: purchased Eurofins CEREP SA
Experimental: as §1, §2

[11] = biological target: T11, Beta2-adrenoreceptor (Homo sapiens, UniProt P07550)
T11 construct: purchased Eurofins CEREP SA
Experimental: as §1, §2

[12] = biological target: T12, PPAR gamma (Homo sapiens, UniProt P37231)
T12 construct: purchased Eurofins CEREP SA
T12 sequence (P37231 1-505): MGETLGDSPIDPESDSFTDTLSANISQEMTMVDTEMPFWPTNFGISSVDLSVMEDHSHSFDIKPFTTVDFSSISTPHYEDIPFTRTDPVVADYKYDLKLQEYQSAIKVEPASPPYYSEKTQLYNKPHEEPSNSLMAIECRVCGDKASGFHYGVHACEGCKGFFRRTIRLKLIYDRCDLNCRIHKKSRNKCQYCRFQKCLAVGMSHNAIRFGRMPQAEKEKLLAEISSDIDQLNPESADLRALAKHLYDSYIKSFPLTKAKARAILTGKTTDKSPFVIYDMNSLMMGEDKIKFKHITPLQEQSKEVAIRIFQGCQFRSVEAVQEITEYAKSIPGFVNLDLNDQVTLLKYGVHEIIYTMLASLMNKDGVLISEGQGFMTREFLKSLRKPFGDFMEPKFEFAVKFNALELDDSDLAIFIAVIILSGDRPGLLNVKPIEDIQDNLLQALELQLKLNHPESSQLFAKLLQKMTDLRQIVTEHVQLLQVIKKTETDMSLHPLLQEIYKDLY
Experimental: as §1, §2

[13] = biological target: T13, Angiotensin II receptor 1 (Homo sapiens, UniProt P30556)
T13 construct: purchased Eurofins CEREP SA
T13 sequence (P30556 1-359): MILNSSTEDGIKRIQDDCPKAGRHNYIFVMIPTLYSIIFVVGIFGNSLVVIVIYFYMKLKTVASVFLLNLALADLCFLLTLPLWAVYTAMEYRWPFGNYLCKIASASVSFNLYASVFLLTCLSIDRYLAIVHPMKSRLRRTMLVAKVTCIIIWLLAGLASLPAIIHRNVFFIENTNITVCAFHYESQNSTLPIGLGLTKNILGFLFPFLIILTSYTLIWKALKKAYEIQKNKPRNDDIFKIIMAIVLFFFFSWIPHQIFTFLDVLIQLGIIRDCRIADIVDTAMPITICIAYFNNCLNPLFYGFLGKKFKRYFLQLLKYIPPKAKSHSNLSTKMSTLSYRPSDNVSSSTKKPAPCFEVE
Experimental: as §1, §2

T8 sequence (P21554 whole entry): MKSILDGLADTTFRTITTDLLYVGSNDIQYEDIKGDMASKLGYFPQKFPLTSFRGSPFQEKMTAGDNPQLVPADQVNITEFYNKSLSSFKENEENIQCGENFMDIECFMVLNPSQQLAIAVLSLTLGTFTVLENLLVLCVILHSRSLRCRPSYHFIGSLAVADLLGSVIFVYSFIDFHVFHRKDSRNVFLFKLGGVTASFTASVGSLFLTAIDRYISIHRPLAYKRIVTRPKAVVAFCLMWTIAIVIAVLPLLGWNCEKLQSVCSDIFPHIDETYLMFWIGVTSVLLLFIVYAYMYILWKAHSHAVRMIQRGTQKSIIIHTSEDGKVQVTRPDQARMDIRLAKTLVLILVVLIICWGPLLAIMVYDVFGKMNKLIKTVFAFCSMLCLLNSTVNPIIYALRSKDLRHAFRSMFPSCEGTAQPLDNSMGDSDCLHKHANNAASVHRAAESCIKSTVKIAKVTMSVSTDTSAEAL
T5 sequence (P35372 whole entry): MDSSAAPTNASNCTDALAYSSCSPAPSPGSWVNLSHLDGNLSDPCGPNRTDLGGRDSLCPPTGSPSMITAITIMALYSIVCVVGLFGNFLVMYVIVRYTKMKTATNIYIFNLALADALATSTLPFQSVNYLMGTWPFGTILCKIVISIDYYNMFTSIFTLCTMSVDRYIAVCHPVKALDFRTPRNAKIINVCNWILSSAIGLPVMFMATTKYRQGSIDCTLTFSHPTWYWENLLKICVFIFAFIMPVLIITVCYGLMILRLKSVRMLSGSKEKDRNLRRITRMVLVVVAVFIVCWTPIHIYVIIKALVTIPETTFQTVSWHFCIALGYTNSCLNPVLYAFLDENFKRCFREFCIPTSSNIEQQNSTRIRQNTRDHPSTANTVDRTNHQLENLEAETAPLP
T3 sequence (P41145 whole entry): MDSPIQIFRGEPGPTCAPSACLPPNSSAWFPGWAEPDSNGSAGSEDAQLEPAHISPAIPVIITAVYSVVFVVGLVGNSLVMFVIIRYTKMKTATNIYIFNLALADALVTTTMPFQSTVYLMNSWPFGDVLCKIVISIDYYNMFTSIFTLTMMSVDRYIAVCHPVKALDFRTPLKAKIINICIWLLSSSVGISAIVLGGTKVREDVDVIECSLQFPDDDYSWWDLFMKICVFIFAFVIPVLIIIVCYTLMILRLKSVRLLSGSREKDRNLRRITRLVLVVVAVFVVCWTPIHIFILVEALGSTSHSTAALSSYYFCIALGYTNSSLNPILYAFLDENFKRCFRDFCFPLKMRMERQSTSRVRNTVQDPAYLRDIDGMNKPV
T1 sequence (P31645 whole entry): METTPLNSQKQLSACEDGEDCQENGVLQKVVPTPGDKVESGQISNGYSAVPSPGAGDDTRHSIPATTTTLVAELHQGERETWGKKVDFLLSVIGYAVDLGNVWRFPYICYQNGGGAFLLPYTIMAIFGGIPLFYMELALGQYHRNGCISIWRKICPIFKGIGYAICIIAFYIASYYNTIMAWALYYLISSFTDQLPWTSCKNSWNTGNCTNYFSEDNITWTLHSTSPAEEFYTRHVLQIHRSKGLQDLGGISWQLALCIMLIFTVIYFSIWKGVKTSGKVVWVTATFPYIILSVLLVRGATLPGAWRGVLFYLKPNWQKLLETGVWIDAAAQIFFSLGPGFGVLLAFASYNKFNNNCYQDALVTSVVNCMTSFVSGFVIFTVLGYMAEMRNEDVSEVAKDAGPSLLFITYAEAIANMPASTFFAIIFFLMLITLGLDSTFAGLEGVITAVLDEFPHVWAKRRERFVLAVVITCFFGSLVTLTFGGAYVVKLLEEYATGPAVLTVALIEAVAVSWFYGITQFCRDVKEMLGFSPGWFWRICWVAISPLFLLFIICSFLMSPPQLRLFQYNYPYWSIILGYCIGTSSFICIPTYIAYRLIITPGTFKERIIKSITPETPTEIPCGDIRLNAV
T10 sequence (P21728 whole entry): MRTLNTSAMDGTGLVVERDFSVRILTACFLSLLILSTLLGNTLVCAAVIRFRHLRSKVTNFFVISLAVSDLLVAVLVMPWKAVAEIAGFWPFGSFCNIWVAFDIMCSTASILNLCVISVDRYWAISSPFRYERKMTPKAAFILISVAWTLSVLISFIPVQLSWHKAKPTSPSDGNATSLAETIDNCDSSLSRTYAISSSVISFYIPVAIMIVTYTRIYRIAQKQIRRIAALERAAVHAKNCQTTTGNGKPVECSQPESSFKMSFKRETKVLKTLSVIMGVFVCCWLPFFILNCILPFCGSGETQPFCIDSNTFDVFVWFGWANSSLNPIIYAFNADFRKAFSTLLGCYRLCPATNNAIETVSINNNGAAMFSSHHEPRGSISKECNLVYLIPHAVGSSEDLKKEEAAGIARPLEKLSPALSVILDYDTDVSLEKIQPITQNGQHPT
T11 sequence (P07550 whole entry): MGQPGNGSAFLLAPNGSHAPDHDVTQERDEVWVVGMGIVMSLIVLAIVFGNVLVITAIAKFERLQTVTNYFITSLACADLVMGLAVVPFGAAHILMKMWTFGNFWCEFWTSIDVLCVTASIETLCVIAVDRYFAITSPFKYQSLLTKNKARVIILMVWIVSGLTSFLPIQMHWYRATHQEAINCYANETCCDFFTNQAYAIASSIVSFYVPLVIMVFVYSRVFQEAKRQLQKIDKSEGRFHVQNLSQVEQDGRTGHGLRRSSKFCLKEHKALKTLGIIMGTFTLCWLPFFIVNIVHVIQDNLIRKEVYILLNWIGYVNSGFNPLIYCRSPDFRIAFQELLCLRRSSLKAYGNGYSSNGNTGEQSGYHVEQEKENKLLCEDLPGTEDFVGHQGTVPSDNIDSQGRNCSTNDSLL
T7 sequence (P35367 whole entry): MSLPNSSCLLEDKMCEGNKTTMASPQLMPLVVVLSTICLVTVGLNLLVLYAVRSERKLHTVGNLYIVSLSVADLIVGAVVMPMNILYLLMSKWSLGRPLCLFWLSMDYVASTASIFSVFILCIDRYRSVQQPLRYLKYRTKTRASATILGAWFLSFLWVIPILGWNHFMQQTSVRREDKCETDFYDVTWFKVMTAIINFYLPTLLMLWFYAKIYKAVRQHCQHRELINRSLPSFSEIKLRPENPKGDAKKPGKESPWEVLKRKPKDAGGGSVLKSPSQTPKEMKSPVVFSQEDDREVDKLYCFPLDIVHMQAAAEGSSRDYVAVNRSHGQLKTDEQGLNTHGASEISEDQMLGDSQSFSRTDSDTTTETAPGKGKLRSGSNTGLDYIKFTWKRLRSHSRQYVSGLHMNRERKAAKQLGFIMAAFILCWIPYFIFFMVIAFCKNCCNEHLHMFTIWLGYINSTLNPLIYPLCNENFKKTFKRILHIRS
T9 sequence (P25021 whole entry): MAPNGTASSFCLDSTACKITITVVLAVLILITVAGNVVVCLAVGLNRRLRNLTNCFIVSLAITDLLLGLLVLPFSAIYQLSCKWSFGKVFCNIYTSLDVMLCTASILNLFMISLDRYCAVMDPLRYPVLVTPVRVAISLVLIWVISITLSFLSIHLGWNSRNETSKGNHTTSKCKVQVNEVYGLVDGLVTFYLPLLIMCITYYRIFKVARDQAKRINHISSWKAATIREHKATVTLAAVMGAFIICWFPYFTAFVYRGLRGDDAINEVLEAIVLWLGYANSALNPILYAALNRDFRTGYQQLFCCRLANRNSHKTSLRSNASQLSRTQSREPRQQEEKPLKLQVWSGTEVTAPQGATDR

Row | Structure (SMILES) | inhibition at 10 µM ([1]; 10 µM, duplicates) [%] | inhibition at 10 µM ([2]; 10 µM, duplicates) [%] | inhibition at 10 µM ([3]; 10 µM, duplicates) [%] | inhibition at 10 µM ([4]; 10 µM, duplicates) [%] | inhibition at 10 µM ([5]; 10 µM, duplicates) [%] | inhibition at 10 µM ([6]; 10 µM, duplicates) [%] | inhibition at 10 µM ([7]; 10 µM, duplicates) [%] | inhibition at 10 µM ([8]; 10 µM, duplicates) [%] | inhibition at 10 µM ([9]; 10 µM, duplicates) [%] | inhibition at 10 µM ([10]; 10 µM, duplicates) [%] | inhibition at 10 µM ([11]; 10 µM, duplicates) [%] | inhibition at 10 µM ([12]; 10 µM, duplicates) [%] | inhibition at 10 µM ([13]; 10 µM, duplicates) [%] | inhibition at 10 µM [1] [%] | inhibition at 10 µM [2] [%] | inhibition at 10 µM [3] [%] | inhibition at 10 µM [4] [%] | inhibition at 10 µM [5] [%] | inhibition at 10 µM [6] [%] | inhibition at 10 µM [7] [%] | other results
1 | CN1C(=O)[C@H](CCCN)NC(=O)[C@H](CCCN)NCc2ccccc2Sc2ccccc2CNC(=O)[C@@H]1Cc1c[nH]c2ccccc12 [RO7036668] | 13 | 15 | 69 | 1 | 63 | -2 | 16 | -26 | 12 | 27 | 3 | -1 | 14 |  |  |  |  |  |  |  | 
2 | CN1C(=O)[C@H](CCCCN)NC(=O)[C@H](CCCN)NCc2cccnc2Sc2c(Cl)ccc(Cl)c2CNC(=O)[C@@H]1Cc1c[nH]c2ccccc12 [RO7075573] |  |  |  |  |  |  |  |  |  |  |  |  |  | 16 | 22 | 26 | -10 | 21 | -5 | 4 | inhibition at 10 µM [8]: -16%; inhibition at 10 µM [9]: 11%; inhibition at 10 µM [10]: 8%; inhibition at 10 µM [11]: -7%; inhibition at 10 µM [12]: -16%; inhibition at 10 µM [13]: -7%
3 | CN1C(=O)[C@H](CCCCN)NC(=O)[C@H](CCCN)NCc2cccnc2Sc2c(Cl)ccc(-c3ccc(C(=O)O)cc3)c2CNC(=O)[C@@H]1Cc1c[nH]c2ccccc12 [RO7202110] | 13 | 7 | 32 | 1 | 26 | -2 | -3 | -24 | 3 | -7 | -11 | -8 | 14 |  |  |  |  |  |  |  | 
4 | CN1C(=O)[C@H](CCCCN)NC(=O)[C@H](CCCN)NCc2cccnc2Sc2cccc(-c3ccc(C(=O)O)cc3)c2CNC(=O)[C@@H]1Cc1c[nH]c2ccccc12 [zosurabalpin] |  |  |  |  |  |  |  |  |  |  |  |  |  | 2 | 7 | 9 | -7 | 4 | 4 | -4 | inhibition at 10 µM [8]: -20%; inhibition at 10 µM [9]: -2%; inhibition at 10 µM [10]: -3%; inhibition at 10 µM [11]: 6%; inhibition at 10 µM [12]: -4%; inhibition at 10 µM [13]: 6%
